Patent US20250144125A1 (priority 2021, published 2025)
Several values for one entry are separate records, joined by “and”; a condition that tells them apart may be missing. Equal values may be shown once. Read-outs that look alike come from different tables or passages of the source.

Tests used:
[1] = test system: chikungunya virus (S27 strain); assay: microbe, parasite or virus in culture; assay type: cell-based
MERS-CoV (EMC strain) = assay: microbe, parasite or virus in culture; assay type: cell-based
in vitro [2] = conditions: African green monkey
[3] = test system: yellow fever virus (YFV 17D strain); assay: microbe, parasite or virus in culture; assay type: cell-based
[4] = test system: dengue virus 2 (New Guinea C strain); assay: microbe, parasite or virus in culture; assay type: cell-based
[5] = test system: influenza A (H1N1) virus (California/07/2009 strain); assay: microbe, parasite or virus in culture; assay type: cell-based; conditions: for EC50: read-out: EC50 California/07/2009 strain
[6] = test system: enterovirus-71 (Tainan/4643/98 strain); assay: organism not typed; assay type: cell-based
[7] = test system: measles virus (CC strain); assay: microbe, parasite or virus in culture; assay type: cell-based
in vitro [8] = conditions: human
in vitro [9] = conditions: African green monkey, Tacaribe virus CC50 Vero
[10] = test system: tacaribe virus (TRVL11573 strain); assay: microbe, parasite or virus in culture; assay type: cell-based; conditions: read-out: Tacaribe virus EC50 TRVL 11573 strain
[11] = test system: human norovirus genogroup I NoV (Norwalk virus replicon) in HG23 cells; assay: Human norovirus antiviral assay, qRT PCR in HG23 NoV replicon cells; assay type: cell-based; conditions: for EC50: HG23 Nov replicon cells, qRT PCR intracellular RNA, read-out: EC50 human norovirus
in vitro [12] = conditions: dog, CC50 MDCK
[13] = Cytotoxicity in the human norovirus replicon assay (HG23 cells); conditions: human, HG23 Nov replicon cells
[14] = test system: tacaribe virus (TRVL11573 strain); assay type: cell-based
HG23 Nov replicon cells = assay: Cytotoxicity in the human norovirus replicon assay (HG23 cells); conditions: read-out: CC50 human norovirus assay
[15] = test system: enterovirus-71 (Tainan/4643/98 strain); assay: Secondary assay (virus yield reduction / neutral red CPE) against enterovirus-71 in Vero 76 cells; assay type: cell-based
HCV = conditions: literature; read-out: EC50 against HCV (RNA replication); cited from earlier work
[16] = Chikungunya virus, Vero 76, read-out: EC50 chikungunya virus
[17] = Middle East respiratory syndrome-related coronavirus, Vero 76, read-out: MERS-CoV EC50 EMC strain
[18] = Yellow fever virus, Huh-7, read-out: Yellow fever virus EC50 YFV 17D strain
[19] = read-out: MERS-CoV CC50 Vero 76, Neutral Red, MERS-CoV screen
[20] = Dengue virus, Huh-7, read-out: EC50 dengue virus 2
[21] = read-out: Yellow fever virus CC50 Huh7, Neutral Red, YFV screen
[22] = Vero 76, read-out: EC50 enterovirus-71
[23] = Measles morbillivirus, Vero 76, read-out: Measles EC50 CC strain
[24] = read-out: Measles EC50 CC strain
[25] = Mammarenavirus tacaribeense, Vero
[26] = read-out: EC50 chikungunya virus
[27] = read-out: MERS-CoV EC50 EMC strain
[28] = read-out: Yellow fever virus EC50 YFV 17D strain
[29] = read-out: MERS-CoV CC50 Vero 76, Visual, MERS-CoV screen
[30] = read-out: Yellow fever virus CC50 Huh7, Visual, YFV screen
[31] = Vero 76, Neutral Red (Cytopathic effect/Toxicity)
[32] = Vero 76, Visual (Virus yield reduction)

| SMILES | CC50 (in vitro [2]; MERS-CoV CC50 Vero 76) [µM] | CC50 (in vitro [2]; Measles CC50 Vero 76) [µM] | EC50 [3, 18] [µM] | CC50 (Vero 76 cells; [19]) [µM] | EC50 [4, 20] [µM] | EC50 ([4]; read-out: EC50 dengue virus 2) [µM] | CC50 (Huh7 cells; [21]) [µM] | EC50 ([5]; Influenza A virus, H1N1, MDCK) [µM] | EC50 [6, 22] [µM] | CC50 (Vero cells; African green monkey) [µM] | EC50 [7, 23] [µM] | EC50 [7, 24] | CC50 (in vitro [8]; CC50) [µM] | CC50 (in vitro [9]) [µM] | EC50 [10, 25] [µM] | EC50 [10] [µM] | EC50 ([11]; Norwalk virus) [µM] | CC50 at 3 days [13] [µM] | EC50 [5] | EC50 ([6]; read-out: EC50 enterovirus-71) [µM] | also measured |
| --- | --- | --- | --- | --- | --- | --- | --- | --- | --- | --- | --- | --- | --- | --- | --- | --- | --- | --- | --- | --- | --- |
| OC[C@H]1O[C@@H](n2ccc3c(C4CC4)ncnc32)[C@H](O)[C@@H]1O [3.1a, 6-Cyclopropyl-9-β-D-ribofuranosyl-7-deazapurine, reference compound] | > 100 | 100 | > 100 | > 100 | 32 | 45 | > 100 | > 100 | > 100 | > 100 | 63 | 56 µM | > 100 | 100 | 100 | > 100 | 2.52 | > 100 |  |  | activity against chikungunya virus in words [1]: inactive; EC50 [1, 16]: > 100 µM; EC50 (MERS-CoV (EMC strain); [17]): > 100 µM; CC50 (Vero 76 cells; African green monkey): > 100 µM; activity against influenza A (H1N1) in words [5]: not active; CC50 (in vitro [8]; Yellow fever virus CC50 Huh7): 100 µM; CC50 (in vitro [12]): > 100 µM |
| OC[C@H]1O[C@@H](n2ccc3c(C#CC4CC4)ncnc32)[C@H](O)[C@@H]1O [3.1c, 6-Cydopropylethynyl-9-β-D-ribofuranosyl-7-deazapurine] |  |  |  | > 100 |  |  | 60 |  |  |  |  | 0.97 µM and 1 µM |  |  |  | 0.68 |  |  | 11 µM and 8.2 µM | > 100 | EC50 [1, 26]: > 100 µM; CC50 (MDCK cells): > 100 µM; activity against MERS-CoV in words (MERS-CoV (EMC strain)): moderately active with low selectivity index; EC50 (MERS-CoV (EMC strain); [27]): 10 µM and 6.7 µM; EC50 [3, 28]: 0.86 µM and 1.8 µM; CC50 (Vero 76 cells): > 100 µM; CC50 (Vero 76 cells; [29]): 100 µM; CC50 (Huh7 cells; [30]): 32 µM; activity against influenza A (H1N1) in words [5]: moderate activity; activity against enterovirus-71 in words [6]: inactive; EC50 [14]: 1.1 µM; EC90 [14]: 0.65 µM; EC50 [11]: 0.13 µM and 0.126 µM; CC50 (HG23 Nov replicon cells): 17.5 µM |
| CC#Cc1ncnc2c1ccn2[C@@H]1O[C@H](CO)[C@@H](O)[C@H]1O [3.1d, 6-(Prop-1-yn-1-yl)-9-β-D-ribofuranosyl-7-deazapurine] | 3.2 | 3.6 | 2.9 | 3.3 | 0.32 | 0.37 | 1.8 | 3.2 |  | 4.2 | > 3.6 | > 3.4 µM | 3.6 | 5.2 | 3.2 | 2.2 | 0.006 | 17.4 | 2.9 µM |  | CC50 (MDCK cells; dog): 4.9 µM; EC50 [3, 28]: > 1.8 µM; CC50 (Vero 76 cells; African green monkey): 3.4 µM; CC50 (Huh7 cells; human): 3.7 µM; CC50 (Huh7 cells; [30]): 12 µM; activity against human norovirus in words [11]: low nanomolar activity and high selectivity; CC50 (in vitro [12]): 6.1 µM |
| CC(C)C#Cc1ncnc2c1ccn2[C@@H]1O[C@H](CO)[C@@H](O)[C@H]1O [3.1e, 6-(3-Methylbut-1-yn-1-yl)-9-β-D-ribofuranosyl-7-deazapurine] | > 100 | 34 | 9.2 | > 100 | 3.2 | 1.8 |  | 3.2 | 4.2 | 7.3 | 3.2 | 2.4 µM | 24 | 10 | 1.3 | 1 | 0.396 | 39.5 | 3 µM | 4.3 | EC50 [1, 16]: > 100 µM; EC50 (MERS-CoV (EMC strain); [17]): 11 µM; EC50 (MERS-CoV (EMC strain); [27]): 14 µM; CC50 (Huh7 cells; human): 21 µM; EC50 [15, 31]: 4 µM; EC90 [15, 32]: 4.6 µM; CC50 (in vitro [8]; Yellow fever virus CC50 Huh7): 28 µM |
| CCCC#Cc1ncnc2c1ccn2[C@@H]1O[C@H](CO)[C@@H](O)[C@H]1O [3.1f, 6-(Pent-1-yn-1-yl)-9-β-D-ribofuranosyl-7-deazapurine] |  | 63 |  | 110 | 0.75 | 0.96 | 31 | 2.2 | 2.2 | 9.9 | 3.2 | 3.7 µM | 12 | 10 | 1.6 | 1.8 | 0.002 | 38.7 | 2.3 µM | 1.6 | CC50 (MDCK cells; dog): 5.1 µM; CC50 (in vitro [2]; CC50): > 100 µM; CC50 (Vero 76 cells; [29]): 19 µM; CC50 (Huh7 cells; human): 11 µM; EC50 [15, 31]: 29 µM; EC90 [15, 32]: 17 µM; CC50 (in vitro [8]; Yellow fever virus CC50 Huh7): 28 µM; activity against human norovirus in words [11]: low nanomolar activity and high selectivity; CC50 (in vitro [12]): 9.1 µM |
| OC[C@H]1O[C@@H](n2ccc3c(C#CC4CCCC4)ncnc32)[C@H](O)[C@@H]1O [3.1g, 6-(Cydopentylethynyl)-9-β-D-ribofuranosyl-7-deazapurine] |  |  |  | 49 |  |  | 6 |  |  |  |  | 3.3 µM and 2.8 µM |  |  |  | 0.37 |  |  | > 8.4 µM | 1.5 | EC50 [1, 26]: > 100 µM; activity against MERS-CoV in words (MERS-CoV (EMC strain)): moderately active with low selectivity index; EC50 [3, 28]: 0.86 µM and 1.3 µM; CC50 (Vero 76 cells; [29]): 100 µM; CC50 (Huh7 cells; [30]): 8.6 µM; CC50 (Vero cells): 34 µM; EC50 ([15]; Neutral Red (Cytopathic effect/Toxicity)): 3.8 µM; EC90 ([15]; Visual (Virus yield reduction)): 1.1 µM; EC50 [11]: 0.438 µM; CC50 (HG23 Nov replicon cells): 25.8 µM |
| OC[C@H]1O[C@@H](n2ccc3c(C#Cc4ccc(Cl)cc4)ncnc32)[C@H](O)[C@@H]1O [3.1j, 6-((4-Chlorophenyl)ethynyl)-9-β-D-ribofuranosyl-7-deazapurine] | 32 | 12 | 1.2 |  | 1.1 | 1 | 5 | > 2.4 | > 32 | 6.5 | 3.2 | 3.3 µM | 12 | 8.6 | > 8.6 | > 6.5 | 0.022 | 38.6 | > 3.2 µM | > 31 | EC50 [1, 16]: > 32 µM; EC50 [1, 26]: > 23 µM; CC50 (MDCK cells; dog): 3.2 µM; EC50 (MERS-CoV (EMC strain); [17]): > 32 µM; EC50 [3, 28]: 0.8 µM; CC50 (Huh7 cells; human): 13 µM; CC50 (Huh7 cells; [30]): 28 µM; CC50 (in vitro [12]): 2.4 µM |
| C[C@@]1(O)[C@H](O)[C@@H](CO)O[C@H]1n1ccc2c(N)ncnc21 [7-Deaza-2′-C-methyladenosine] |  |  |  |  |  |  |  |  |  |  |  |  |  |  |  |  |  |  |  |  | EC50 (HCV): 0.25 µM |
| C[C@@]1(O)[C@H](O)[C@@H](CO)O[C@H]1n1cc(F)c2c(N)ncnc21 [7-fluoro-7-deaza-2′-C-methyladenosine] |  |  |  |  |  |  |  |  |  |  |  |  |  |  |  |  |  |  |  |  | EC50 (HCV): 0.07 µM |
| CCOC(=O)c1ccc(OCCC2CCN(c3ccc(C)nn3)CC2)cc1 [Pirodavir, pirodavir, reference compound] |  |  |  |  |  |  |  |  | 0.4 |  |  |  |  |  |  |  |  |  |  | 0.27 | CC50 (in vitro [2]; CC50): > 27 µM; EC50 [15, 31]: 0.35 µM; EC90 [15, 32]: 0.46 µM |
